Here are results for 63 compounds from a melting point compilation (Tetko et al.; mined from patent text by program, amines drawn as free bases though some values may be those of a salt).

One may read the melting point as the temperature, or range, at which the solid turns liquid.

Compound `Cc1cc(N2CCN(CCOc3ccccc3)C2=O)sc1C(=O)NCc1cccnc1` yielded a melting point of 78 to 80 °C.

Compound `COc1ccc(Cn2c(=O)oc(=O)c3cccnc32)cc1` displayed a melting point of 160 °C.

`COc1ccc(Cl)cc1C(=O)N(C)CCc1ccc(CCC(=O)O)cc1` registered a melting point of 152 to 153 °C.

`O=Cc1nn(-c2cccc(C(F)(F)F)c2)c2c1CCCC2` came in with a melting point of 88 °C.

The compound `N=C(c1ccccc1)c1cc(Cl)ccc1O` returned a melting point of 129 to 131 °C.

As to `CCN(CCOc1cccc2ccccc12)c1ccc(C(=O)O)cc1`, the melting point was 205 to 206 °C.

In turn, `COc1ccc(-c2ccc(C)n2CC[C@H]2C[C@H](O)CC(=O)O2)cc1` (relative stereo) yielded a melting point of 95 °C.

`O=C(Nc1cccc(C(F)(F)F)c1)c1cccnc1NCCc1ccncc1` returned a melting point of 128 to 138 °C.

In the case of `CCOc1ccc(C(=O)N2CCc3nnc(NN)cc3C2)cc1`, the melting point was 171 to 173 °C.

`CC(C)(C)OC(=O)Nc1ccc(C#Cc2ccc(OC(F)(F)F)cc2)cc1[N+](=O)[O-]` yielded a melting point of 129 to 131 °C.

Compound `COC(=O)C1=C(COCCn2c(C)nc(C)c2C)NC(C)=C(C(=O)Nc2ccccc2)C1c1ccccc1Cl` (stereo not drawn) yielded a melting point of 135 to 140 °C.

The compound `CCCCCc1c(-c2ccc3c(Br)c(O)ccc3c2)oc2ccccc12` displayed a melting point of 75 to 77 °C.

In turn, `COCC(=O)N[C@@H]1CCOc2ccccc21` registered a melting point of 109 to 112 °C.

In the case of `CCCc1c(-c2ccc(C(=O)OC)cc2)oc2cc(S(=O)(=O)Cl)ccc2c1=O`, the melting point was determined as 128 °C.

Turning to `COc1cc(C(=O)NCc2ccccc2)cc(NC(=O)c2ccccc2)n1`, the melting point fell in the range of 132 to 133 °C.

In turn, `O=C(O)CCP(=O)(O)CCC(=O)O` registered a melting point of 156 to 159 °C.

Compound `CC1(C)CC(=O)c2ccc(C#Cc3cccnc3)nc2C1` displayed a melting point of 108 to 109 °C.

For `NC(=O)CN1C(=O)C(=Cc2ccc(OCCc3ccccc3)c(OCc3ccccc3)c2)SC1=S`, the melting point is 212 to 214 °C.

For the compound `COC(=O)CCc1oc(-n2ccnc2SC)nc1-c1ccc(Cl)cc1`, the melting point fell in the range of 88 to 89 °C.

With `Nc1ccc2c(c1)C(=O)CC1(CCN(CCc3ccc4nonc4c3)CC1)O2`, the melting point lay in the range of 191 to 193 °C.

`OCc1ccc(C2=NOC(c3cc(Cl)cc(Cl)c3)(C(F)(F)F)C2)cc1Cl` (stereo not drawn) displayed a melting point of 32 to 35 °C.

Compound `CCN1CCCN(c2cc(Cl)ccc2C)C1=S` gave a melting point of 111 to 112 °C.

The compound `Oc1ccc2c(c1)COc1c-2cc2ccc(O)cc2c1Cl` gave a melting point of 230 to 231 °C.

On to `CCCn1nc(CC)c(C(=O)OC)c1Cc1ccc(-c2ccccc2S(N)(=O)=O)cc1`, for which the melting point turned out to be 144 °C.

For `CCCCc1ccc(C(=O)N[C@H](Cc2ccc(C(F)(F)F)cc2)[C@@H](O)c2ccc(F)cc2)cc1` (racemic), the melting point fell in the range of 171 to 172 °C.

`OCc1ccc(-c2ccc(CO)cc2)cc1` showed a melting point of 195 to 197 °C.

The compound `CCc1ccc(-c2ncccc2S(=O)(=O)Nc2ncc(C)nc2OC)cc1` had a melting point of 73 °C.

Compound `CCCCC(Cc1ccc(OCCNC(=O)c2ccc(-c3ccc(CN(C)C)cc3)cc2)cc1)C(=O)O` (stereo not drawn) displayed a melting point of 125 to 127 °C.

In turn, `OC1(COc2ccccc2Cc2ccccc2)CN2CCC1CC2` (stereo not drawn) registered a melting point of 71 to 73 °C.

`COc1ccc2c(c1)N(C)C(=O)C2(C)C` showed a melting point of 67 to 69 °C.

As for `CCc1nc2cnc3cc(OCc4ccccc4)ccc3c2n1CC(C)C`, the melting point is 127 °C.

Compound `COc1ccc(C(=O)Nc2ccc3ccc(C#N)nc3n2)cc1` displayed a melting point of 283 °C.

As for `CC1C(=O)Oc2cc(N3CCOCC3)c(Br)cc21` (stereo not drawn), the melting point lay in the range of 99 to 100 °C.

As for `CC(C)c1nc(N)nc(-c2ccc(F)c3ccccc23)c1Br`, the melting point lay within 176 to 180 °C.

In turn, `O=C1NCCc2ccccc2N1OCCCCN1CCN(c2cccc(C3CC3)n2)CC1` displayed a melting point of 155 to 156 °C.

Compound `COc1ccc2c(c1)S(=O)(=O)C(C(=O)NCCCCCC(=O)O)C(=O)N2C` (stereo not drawn) displayed a melting point of 110 to 112 °C.

In turn, `Cc1c(N(C)C)cc(C(=O)CS(C)(=O)=O)cc1N(C)C` came in with a melting point of 161 to 163 °C.

Consider `O=C1N=C(c2ccccc2OCC(F)(F)F)N=C2N=CN=C12`, for which the melting point was in the range of 261 to 263 °C.

In turn, `Cc1cccc(NC(=O)NC2N=C(c3ccccc3F)c3ccccc3N(Cc3ncccc3C(=O)N3CCCC3)C2=O)c1` (racemic) yielded a melting point of 153 to 155 °C.

Compound `O=C(Nc1ccc(C(F)(F)F)cc1)C1=NN(c2ccc(Cl)nn2)C(c2ccc(F)cc2)C1` (stereo not drawn) registered a melting point of 200 to 202 °C.

`O=C(Nc1ccc(-n2nc(C(F)(F)F)cc2C(F)(F)F)cc1)c1cccc(I)c1` showed a melting point of 192 to 193 °C.

Turning to `Cc1ccc(S(=O)(=O)n2ccc(-c3ccc(F)cc3)c2-c2ccc(S(C)(=O)=O)cc2)cc1`, the melting point lay in the range of 228 to 229 °C.

Compound `Clc1nc(Cl)c2ccsc2n1` returned a melting point of 116 °C.

As for `CC(C)C[C@@H]1OC(O)[C@H](Cc2ccccc2)NC1=O` (stereo partly drawn), the melting point is 84 to 84.5 °C.

As to `N#Cc1ccc(Oc2ccc(F)cc2)nc1`, the melting point was 120 to 121 °C.

In the case of `NCCNC(=O)CN1CCC(O)C1=O` (stereo not drawn), the melting point lay within 110 to 112 °C.

As for `CC(C)(C)Nc1cc(Cl)nc(N2CCCC2)n1`, the melting point is 148 to 150 °C.

Regarding `COC(=O)c1ccccc1OCCOc1cccc2ccccc12`, the melting point fell in the range of 132 to 137 °C.

`Cc1cc(F)ccc1-c1nc(NCCNC(=O)Nc2cccc(F)c2)nc2c1ccc(=O)n2-c1c(F)cccc1F` returned a melting point of 131 to 144 °C.

`CN(CCc1ccc(NS(C)(=O)=O)cc1)Cc1ccc2cc(NS(C)(=O)=O)ccc2n1` gave a melting point of 165 to 166 °C.

As to `O=C1CCC(Nc2ncc3ncnc(Nc4ccc(F)c(Cl)c4)c3n2)CC1`, the melting point fell in the range of 232 to 234 °C.

On to `CCOC(=O)C1=C(C)NC(C)=C(C(=O)OCC)C1c1cc2cnccc2s1`, for which the melting point was in the range of 204 to 205 °C.

`O=C(Cn1c(=O)sc2ncc(Cl)cc21)N1CCN(CCO)CC1` registered a melting point of 198 to 200 °C.

Compound `COc1ccc(C(=O)N2CCc3cc(O)ccc3C2)cc1OC` showed a melting point of 58 to 77 °C.

As for `CC(=O)OCC(=O)[C@@]1(O)CCc2c(O)c3c(c(O)c2C1)C(=O)c1cccc(O)c1C3=O`, the melting point fell in the range of 215 to 217 °C.

For `O=Cc1c2ccccc2c(C=O)c2cc3ccccc3cc12`, the melting point fell in the range of 215 to 217 °C.

The compound `O=[N+]([O-])c1ccc(-n2cccn2)cc1` registered a melting point of 210 °C.

Compound `CCCCCCCCCCCCCCn1nnc(NC(=O)Nc2c(C(C)C)cccc2C(C)C)n1` registered a melting point of 112 to 114 °C.

On to `CC(c1ccc(-c2ccccc2)c(F)c1)c1cc(CO)no1` (stereo not drawn), for which the melting point lay within 127 to 128 °C.

In turn, `CN(C)CCC1CCCCN1C1c2ccccc2Oc2ccccc21` (stereo not drawn) displayed a melting point of 64 to 67 °C.

Compound `COc1cc(CCNC(=O)C(F)(F)F)ccc1N` returned a melting point of 80 to 81 °C.

For the compound `c1ccc(-c2ccc(-c3nc(COc4ccc(CCCn5ccnc5)cc4)co3)s2)cc1`, the melting point lay within 128 to 129 °C.

In turn, `COc1ccc(Nc2nc(-c3cc(-c4ccccc4)no3)cs2)nc1` had a melting point of 203 to 205 °C.
